Key:
[1] = target: T1, AFF4-CCNT1 interaction (GST-CCNT1 AA 1-300 and biotin-AFF4 peptide AA 32-67) (Homo sapiens, UniProt O60563); assay: AlphaLISA assay of the AFF4-CCNT1 interaction (Alpha Screen); type: binding
T1 construct: Recombinant GST-CCNT1 (1-300), which was purified by Glutathione Superflow Agarose from Rosetta cells; VCPBIO (peptide synthesis) Addgene P#432; host or cells: Rosetta cells
Description: FIG. 1. Peptidomimetic identification of disruptors of the AFF4-CCNT1 interaction within the Super Elongation Complex. (A) Schematic for the identification of small molecule inhibitors of the AFF4-CCNT1 interaction using in silico high-throughput screening. Compounds from the ZINC database were docked with the AFF4-CCNT1 structure (4IMY) using a three-tier glide-docking algorithm, which led to 40 candidates. Residues forming the deep binding pocket of CCNT1 are labeled orange and residues of the AFF4 peptide are labeled red. (B) Validation screening identified KL-1 as a potential SEC disruptor using AlphaLISA screening. GST-CCNT1 (AA 1-300) and biotin-labeled AFF4 peptide (AA 32-67) were used to measure the AFF4-CCNT1 interaction with the AlphaLISA assay. (C) Similarity search for KL-1-like molecules identified KL-2. The peptidomimetic potential of KL-1 and KL-2 can be seen by overlaying them with the AFF4 peptide LFAEP structure. (D) Dose-dependent inhibition of KL-1 and KL-2 on AFF4-CCNT1 interaction. The Ki constants of both compounds were measured with the AlphaLISA assays. (E) Treatment of HEK293T cells with KL-1 and KL-2 results in reduced protein levels of SEC components AFF1 and AFF4 but not CDK9 or CCNT1. HEK293T cells were treated with 20 μM of SEC inhibitors KL-1 or KL-2 for 6 hr. 5 μl, 10 and 20 μl cell lysates were loaded and the protein levels of AFF1, AFF4, CCNT1, CDK9 and Tubulin (load control) were determined by western blotting.
FIG. 8, related to FIG. 1. Peptidomimetic identification of disruptors of the AFF4-CCNT1 interaction within the Super Elongation Complex. (A) Schematic of AlphaLISA assay of the AFF4-CCNT1 interaction. Anti-GST AlphaLISA acceptor beads and AlphaScreen streptavidin donor beads (Perkin Elmer) were used to detect the interaction of GST-CCNT1 (AA1-300) and biotin-AFF4 (AA32-67). (B-C) Optimization of the AlphaLISA assay with various biotin-AFF4 peptide and GST-CCNT1 concentrations. No CCNT1 (B) and mutant AFF4 (C) were used as negative controls. Data are represented as Mean+/−SD. (D) Scheme for chemical synthesis of SEC inhibitors KL-1 and KL-2. Reagents and conditions: a. LDA, THF, −78° C., 15 min., then diethyl oxalate, −78° C. to room temperature. b. NaOH, THF/H2O, room temperature, 15 min. c. EEDQ, 5-chloro-2-methylaniline, THF, room temperature, 24 hr. […] 293T cells were treated with 20 μM of KL-1 or KL-2 for 6 hr, and the protein levels of BRD2, BRD4, Pol II (RPB1), SPT5, MED26, MYC, HSP90 (load control) and Tubulin (load control) were measured by western blotting. (F) Treatment of HCT-116 cells with KL-1 and KL-2 reduced protein levels of SEC components AFF1 and AFF4 but not CDK9 or CCNT1. HCT-116 cells were treated with 20 μM of KL-1 or KL-2 for 6 hr, and the protein levels of AFF1, AFF4, CCNT1, CDK9 and Tubulin (load control) were determined by western blotting. (G-H) Treating cells with KL-1 and KL-2 results in reduced levels of AFF 1 and AFF4. FLAG-AFF1 (G) and FLAG-AFF4 (H) were expressed under the Tet-inducible promoter in HEK293T cells. Cells were treated with 20 μM of the indicated inhibitors for 6 hr for western blotting. […] RNA-seq was performed in HEK293T cells treated for 12 hr with 20 μM of the indicated inhibitors. The log2CPM (counts per million) of the SEC subunits were calculated with HTseq. KL-1 and KL-2 had no significant effects on CCNT1, CDK9 and AFF1 expression, but modest increases in the mRNA levels of AFF4 and ELL2 were observed (n=3). Unpaired two-way ANOVA was used for the statistical testes. **,p<0.05, ***,p<0.001.
To test if candidate compounds can disrupt the AFF4-CCNT1 interaction in vitro, we established and optimized a bead-based AlphaLISA assay with recombinant CCNT1 (1-300) protein and synthesized Biotin-AFF4 peptides (AA 32-67) (FIGS. 8A, 8B and 8C).
AlphaLISA Assay. The interaction of CCNT1-AFF4 was measured by Perkin Elmer's bead-based AlphaLISA assays. […]

[2] = Toxicity test in mice (body weight, sickness); type: in vivo; conditions: 5 doses of 10 mg/kg, monitored 35 days
Description: FIG. 14, related to FIG. 7. SEC disruptors delay tumor progression and improve survival of MDA231-LM2 tumor mice. (A) KL-1 and KL-2 inhibit the colony formation of MDA231-LM2 cells in vitro. 5×10^3 MDA231-LM2 cells were seeded in 6-well plates and treated with KL-1 or KL-2 at the indicated doses for 5 days. Crystal violet staining was performed to stain the colonies. (B) KL-1 and KL-2 induce apoptosis in MDA231-LM2 cells. Bar graph depiction of Annexin V positive MDA231-LM2 cells after 24 hr of KL-1 and KL-2 treatments at the indicated concentrations. Data are represented as Mean+/−SD. […] Each individual line indicates the weights of each mouse during toxicity test.

T1 sequence (O60563 1-300): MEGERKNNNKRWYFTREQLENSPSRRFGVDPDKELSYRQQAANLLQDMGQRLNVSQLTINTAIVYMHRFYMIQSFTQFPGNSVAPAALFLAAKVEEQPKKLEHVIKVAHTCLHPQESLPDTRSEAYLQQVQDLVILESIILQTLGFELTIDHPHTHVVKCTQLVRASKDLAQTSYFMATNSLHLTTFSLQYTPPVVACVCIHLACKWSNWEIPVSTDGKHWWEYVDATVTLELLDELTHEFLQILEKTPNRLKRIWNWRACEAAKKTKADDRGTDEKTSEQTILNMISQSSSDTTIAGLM

Compound | IC50 [1] [µM] | further results
Cc1ccc(Cl)cc1NC(=O)C(=O)CC(=O)c1ccc(F)cc1 [KL-2, N-(5-chloro-2-methylphenyl)-4-oxo-(4-fluorophenyl)-2-oxobutanamide] |  | Ki ([1]; AlphaLISA, IC50 converted to Ki with the Cheng and Prusoff equation, read-out: Ki, inhibition of the AFF4-CCNT1 interaction): 1.5 µM; weight loss in mice ([2]; intraperitoneal): does not result in significant weight loss; sign of sickness in mice [2]: no obvious sign of sickness was observed
Cc1nccnc1NC(=O)C(=O)CC(=O)c1ccc(F)cc1 [NUCC-0201596] | ≥ 30 | 
O=C(CC(=O)c1ccc(F)cc1)C(=O)NCc1ccccc1 [NUCC-0201688] | ≥ 30 | 
O=C(CC(=O)c1ccc(F)cc1)C(=O)NCc1ccncc1 [NUCC-0201689] | ≥ 30 | 
O=C(CC(=O)c1ccc(F)cc1)C(=O)Nc1nn[nH]n1 [NUCC-0201690] | 9.88 ± 0.6 | 
Cc1nc(NC(=O)C(=O)CC(=O)c2ccc(F)cc2)no1 [NUCC-0201691] | ≥ 60 | 
O=C(CC(=O)c1ccc(F)cc1)C(=O)Nc1nccs1 [NUCC-0201692] | 20.8 ± 4.2 | 
O=C(CC(=O)c1ccc(F)cc1)C(=O)Nc1cncc(F)c1 [NUCC-0201693] | 7.42 ± 0.26 | 
COc1cccc(C(=O)CC(=O)C(=O)Nc2ccc(F)c(F)c2)c1 [NUCC-0201921] | 17.4 | 
COc1cc(NC(=O)C(=O)CC(=O)c2cccc(OC)c2)cc(OC)c1 [NUCC-0201922] | 14.3 | 
COc1cccc(C(=O)CC(=O)C(=O)Nc2ccc(Cl)c(Cl)c2)c1 [NUCC-0201923] | 12.8 | 
COc1cccc(C(=O)CC(=O)C(=O)Nc2ccc(F)cc2)c1 [NUCC-0201924] | 20 | 
COc1cccc(C(=O)CC(=O)C(=O)Nc2cccc(Cl)c2)c1 [NUCC-0201925] | 14.4 | 
COc1cccc(C(=O)CC(=O)C(=O)Nc2cc(C(=O)O)ccc2C)c1 [NUCC-0201926] | 15.2 ± 8 | 
COc1cccc(C(=O)CC(=O)C(=O)Nc2cncnc2C)c1 [NUCC-0201927] | 17.9 ± 2.4 | 
COc1cccc(C(=O)CC(=O)C(=O)Nc2cccc(OC)c2C)c1 [NUCC-0201929] | 15.7 | 
COc1cccc(NC(=O)C(=O)CC(=O)c2ccc(F)cc2)c1C [NUCC-0202067] | 21.3 ± 3.1 | 
O=C(CC(=O)c1ccc(F)cc1)C(=O)Nc1cccc(Cl)c1 [NUCC-0202068] | 11.4 ± 0.9 | 
O=C(CC(=O)c1ccc(F)cc1)C(=O)NC1CCCC1 [NUCC-0202069] | ≥ 60 | 
Cc1ccccc1NC(=O)C(=O)CC(=O)c1ccc(F)cc1 [NUCC-0202092] | 14.8 ± 2 | 
Cc1ccc(Cl)cc1NC(=O)[C@@H](O)CC(=O)c1ccc(F)cc1 [NUCC-0202170] | 30.6 ± 1.4 | 
CN1CC[C@H](c2c(O)cc(O)c3c(=O)cc(-c4ccccc4Cl)oc23)[C@H](O)C1 [flavopiridol, reference compound] |  | disruption of the AFF4-CCNT1 interaction ([1]; tested at 20 μM): neither the pan-CDK9 kinase inhibitor flavopiridol nor the BET domain inhibitors disrupted the AFF4-CCNT1 interaction

Reference: patent publication US11453640B2, “Small molecules for disrupting the super elongation complex and inhibiting transcription elongation for cancer therapy” (NORTHWESTERN UNIVERSITY, priority 2018, dated 2022)
